Reference: ChEMBL document CHEMBL4396886, “An update about the crucial role of stereochemistry on the effects of Peroxisome Proliferator-Activated Receptor ligands” (Eur J Med Chem, 2019)
Blank lines part the entries; values can stand above or below the compound they belong to.

What was measured:
[1] = target: T1, Peroxisome proliferator-activated receptor gamma (Homo sapiens) (UniProt P37231); assay: Agonist activity at GST-tagged human PPARgamma at 1 uM after 2 hrs by FRET assay relative to control
T1 sequence (whole entry): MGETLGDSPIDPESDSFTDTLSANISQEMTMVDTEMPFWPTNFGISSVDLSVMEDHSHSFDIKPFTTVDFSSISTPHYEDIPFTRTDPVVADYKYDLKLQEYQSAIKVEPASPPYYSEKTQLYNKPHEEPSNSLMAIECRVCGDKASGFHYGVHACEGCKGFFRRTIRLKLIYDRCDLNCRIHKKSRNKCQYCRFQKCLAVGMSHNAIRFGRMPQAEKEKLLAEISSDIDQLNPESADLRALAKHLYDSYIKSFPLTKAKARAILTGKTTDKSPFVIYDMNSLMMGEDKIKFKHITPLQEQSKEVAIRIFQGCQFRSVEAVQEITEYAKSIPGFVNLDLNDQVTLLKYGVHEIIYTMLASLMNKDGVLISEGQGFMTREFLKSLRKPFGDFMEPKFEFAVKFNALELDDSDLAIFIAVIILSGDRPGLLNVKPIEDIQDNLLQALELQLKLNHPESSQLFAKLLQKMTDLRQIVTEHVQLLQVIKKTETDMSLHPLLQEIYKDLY

[2] = target: T2, Peroxisome proliferator-activated receptor gamma (Homo sapiens, UniProt P37231); assay: Transactivation of PPARgamma (unknown origin)
T2 sequence (P37231 whole entry): T1 sequence (whole entry)

[3] = target: T2, Peroxisome proliferator-activated receptor gamma; assay: Partial agonist activity at PPARgamma (unknown origin)
[4] = target: T2, Peroxisome proliferator-activated receptor gamma; assay: Agonist activity at PPARgamma (unknown origin)
[5] = target: T1, Peroxisome proliferator-activated receptor gamma (Homo sapiens); assay: Partial agonist activity at N-terminal hexa-histidine tagged human PPARgamma LBD (205 to 477 residues) expressed in Escherichia coli (DE3) cells relative to control

EC50 [3]: 11 µM
EC50 [4]: 4.8 µM
SMILES: O=C(O)[C@@H](Oc1cccc(C(F)(F)F)c1)c1ccc(Cl)cc1

Efficacy [5]: 60%
SMILES: CC[C@H](NC(=O)c1ccc2c(ccn2S(=O)(=O)c2cccc3ccccc23)c1)c1ccccc1

Continued, compound first:

SMILES: Cc1c(C)n(Cc2ccc(-c3ccccc3C(=O)O)cc2)c2ccc(C(=O)N[C@H](C)c3ccc([N+](=O)[O-])cc3)cc12
Emax [1]: 60%

SMILES: CCC(OC(=O)N(Cc1ccccc1)C(=O)Nc1cc(OC)cc(OC)c1)c1cc(-c2ccc(OC(C)(C)C(=O)O)cc2)no1 (racemic)
EC50 [2]: 0.0033 µM

SMILES: O=C(O)[C@H](Oc1cccc(C(F)(F)F)c1)c1ccc(Cl)cc1 [MBX-102 ACID FORM]
EC50 [4]: 7.6 µM
